Assay results reported in the CheMixHub ionic liquid set.
± gives the uncertainty stated by the source.

Assay: xn = mol fraction of the nth substance listed
Conditions: 101 kPa

CCCCCCCCCCCCCCCC[n+]1ccccc1.O=C([O-])C(O)c1ccccc1 + NCC(=O)NCC(=O)O + O
electrical conductivity [S/m]
Conditions	293.15 K	298.15 K	303.15 K	308.15 K	313.15 K
x1 = 1.08e-06, x2 = 0	0.00061 ± 0.00098	0.00068 ± 0.0011	0.00076 ± 0.0012	0.00083 ± 0.0013	0.0009 ± 0.0015
x1 = 1.09e-06, x2 = 0.001799	0.00287 ± 0.00079	0.00346 ± 0.00089	0.00413 ± 0.00097	0.0049 ± 0.0011	0.0058 ± 0.0013
x1 = 1.27e-06, x2 = 0.0009002	0.00184 ± 0.00094	0.0022 ± 0.001	0.0026 ± 0.0011	0.0031 ± 0.0014	0.0036 ± 0.0015
x1 = 1.98e-06, x2 = 0	0.001 ± 0.001	0.0012 ± 0.0012	0.0013 ± 0.0013	0.0014 ± 0.0014	0.0016 ± 0.0015
x1 = 2.19e-06, x2 = 0.001799	0.00326 ± 0.00079	0.00391 ± 0.00091	0.0046 ± 0.001	0.0054 ± 0.0012	0.0064 ± 0.0013
x1 = 2.36e-06, x2 = 0.0009002	0.00226 ± 0.00086	0.00268 ± 0.00096	0.0031 ± 0.0011	0.0036 ± 0.0012	0.0042 ± 0.0013
x1 = 2.88e-06, x2 = 0	0.00147 ± 0.00099	0.0016 ± 0.0011	0.0018 ± 0.0012	0.002 ± 0.0014	0.0022 ± 0.0015
x1 = 3.26e-06, x2 = 0.0009002	0.00264 ± 0.00086	0.0031 ± 0.00097	0.0036 ± 0.0011	0.0042 ± 0.0012	0.0048 ± 0.0013
x1 = 3.46e-06, x2 = 0.001799	0.00367 ± 0.00084	0.00438 ± 0.00095	0.0051 ± 0.0011	0.006 ± 0.0012	0.007 ± 0.0013
x1 = 3.96e-06, x2 = 0	0.0019 ± 0.001	0.0022 ± 0.0011	0.0024 ± 0.0013	0.0026 ± 0.0014	0.0029 ± 0.0015
x1 = 4.17e-06, x2 = 0.0009002	0.00301 ± 0.00089	0.0035 ± 0.001	0.004 ± 0.0011	0.0046 ± 0.0012	0.0053 ± 0.0014
x1 = 4.56e-06, x2 = 0.001799	0.00407 ± 0.00085	0.00482 ± 0.00096	0.0056 ± 0.0011	0.0066 ± 0.0012	0.0076 ± 0.0014
x1 = 4.69e-06, x2 = 0	0.0023 ± 0.001	0.0026 ± 0.0011	0.0029 ± 0.0013	0.0031 ± 0.0014	0.0035 ± 0.0015
x1 = 5.44e-06, x2 = 0.0009002	0.00346 ± 0.00086	0.004 ± 0.00098	0.0046 ± 0.0011	0.0053 ± 0.0012	0.006 ± 0.0014
x1 = 5.47e-06, x2 = 0.001799	0.00441 ± 0.00086	0.00521 ± 0.00098	0.0061 ± 0.0011	0.007 ± 0.0013	0.0082 ± 0.0014
x1 = 5.95e-06, x2 = 0	0.00281 ± 0.00098	0.0032 ± 0.0011	0.0035 ± 0.0012	0.0038 ± 0.0013	0.0042 ± 0.0015
x1 = 6.89e-06, x2 = 0.0009002	0.00401 ± 0.00086	0.00464 ± 0.00098	0.0053 ± 0.0011	0.006 ± 0.0012	0.0069 ± 0.0014
x1 = 6.93e-06, x2 = 0.001799	0.00487 ± 0.00086	0.00571 ± 0.00097	0.0066 ± 0.0011	0.0077 ± 0.0013	0.0089 ± 0.0014
x1 = 7.21e-06, x2 = 0	0.00341 ± 0.00095	0.0038 ± 0.0011	0.0042 ± 0.0012	0.0046 ± 0.0013	0.0051 ± 0.0015
x1 = 8.34e-06, x2 = 0.0009002	0.00451 ± 0.00086	0.0052 ± 0.00099	0.0059 ± 0.0011	0.0068 ± 0.0013	0.0077 ± 0.0014
x1 = 8.38e-06, x2 = 0.001799	0.00536 ± 0.00083	0.00626 ± 0.00095	0.0072 ± 0.0011	0.0084 ± 0.0012	0.0097 ± 0.0014
x1 = 8.83e-06, x2 = 0	0.00406 ± 0.00092	0.0046 ± 0.001	0.005 ± 0.0011	0.0055 ± 0.0013	0.006 ± 0.0014
x1 = 9.97e-06, x2 = 0.0009002	0.00504 ± 0.00084	0.00579 ± 0.00095	0.0066 ± 0.0011	0.0075 ± 0.0012	0.0085 ± 0.0014
x1 = 1.002e-05, x2 = 0.001799	0.00583 ± 0.00084	0.0068 ± 0.00096	0.0078 ± 0.0011	0.009 ± 0.0013	0.0104 ± 0.0014
x1 = 1.045e-05, x2 = 0	0.00469 ± 0.00089	0.0053 ± 0.001	0.0058 ± 0.0011	0.0065 ± 0.0012	0.0071 ± 0.0014
x1 = 1.142e-05, x2 = 0.0009002	0.00547 ± 0.00083	0.00629 ± 0.00094	0.0071 ± 0.0011	0.0081 ± 0.0012	0.0092 ± 0.0014
x1 = 1.166e-05, x2 = 0.001799	0.0062 ± 0.00083	0.00723 ± 0.00095	0.0083 ± 0.0011	0.0096 ± 0.0012	0.011 ± 0.0014
x1 = 1.207e-05, x2 = 0	0.00516 ± 0.00088	0.0058 ± 0.001	0.0064 ± 0.0011	0.0071 ± 0.0012	0.0079 ± 0.0014
x1 = 1.287e-05, x2 = 0.0009002	0.00582 ± 0.00082	0.00669 ± 0.00094	0.0076 ± 0.0011	0.0086 ± 0.0012	0.0098 ± 0.0013
x1 = 1.312e-05, x2 = 0.001799	0.0066 ± 0.00085	0.00763 ± 0.00096	0.0088 ± 0.0011	0.0101 ± 0.0013	0.0117 ± 0.0014
x1 = 1.351e-05, x2 = 0	0.00562 ± 0.00086	0.00631 ± 0.00097	0.007 ± 0.0011	0.0077 ± 0.0012	0.0085 ± 0.0013
x1 = 1.414e-05, x2 = 0.0009002	0.00617 ± 0.00085	0.00708 ± 0.00096	0.008 ± 0.0011	0.0091 ± 0.0012	0.0103 ± 0.0014
x1 = 1.476e-05, x2 = 0.001799	0.00697 ± 0.0009	0.0081 ± 0.001	0.0093 ± 0.0012	0.0107 ± 0.0013	0.0122 ± 0.0015
x1 = 1.478e-05, x2 = 0	0.00603 ± 0.0009	0.0068 ± 0.001	0.0075 ± 0.0011	0.0083 ± 0.0012	0.0092 ± 0.0013
x1 = 1.54e-05, x2 = 0.0009002	0.00651 ± 0.00092	0.0075 ± 0.001	0.0084 ± 0.0011	0.0096 ± 0.0013	0.0108 ± 0.0014
x1 = 1.622e-05, x2 = 0	0.00644 ± 0.00092	0.0072 ± 0.001	0.008 ± 0.0011	0.0089 ± 0.0013	0.0098 ± 0.0014
x1 = 1.622e-05, x2 = 0.001799	0.00735 ± 0.00091	0.0084 ± 0.001	0.0097 ± 0.0012	0.0112 ± 0.0014	0.0128 ± 0.0015
x1 = 1.667e-05, x2 = 0.0009002	0.00687 ± 0.00096	0.0079 ± 0.001	0.0089 ± 0.0012	0.0101 ± 0.0013	0.0114 ± 0.0015
x1 = 1.75e-05, x2 = 0.001799	0.00771 ± 0.00097	0.0088 ± 0.0011	0.0102 ± 0.0013	0.0117 ± 0.0014	0.0133 ± 0.0016
x1 = 1.766e-05, x2 = 0	0.00687 ± 0.00093	0.0077 ± 0.001	0.0085 ± 0.0012	0.0094 ± 0.0013	0.0104 ± 0.0014
